Each compound was assayed against T1, human RXFP1 (Homo sapiens, UniProt Q9HBX9) (assay: hRXFP1 HEK293 cAMP assay (HTRF)). Settings: HEK293 cells stably expressing human RXFP1; 30 min at rt; intracellular cAMP by HTRF.
T1 construct: expressed in transfected cells
T1 sequence (Q9HBX9 1-757): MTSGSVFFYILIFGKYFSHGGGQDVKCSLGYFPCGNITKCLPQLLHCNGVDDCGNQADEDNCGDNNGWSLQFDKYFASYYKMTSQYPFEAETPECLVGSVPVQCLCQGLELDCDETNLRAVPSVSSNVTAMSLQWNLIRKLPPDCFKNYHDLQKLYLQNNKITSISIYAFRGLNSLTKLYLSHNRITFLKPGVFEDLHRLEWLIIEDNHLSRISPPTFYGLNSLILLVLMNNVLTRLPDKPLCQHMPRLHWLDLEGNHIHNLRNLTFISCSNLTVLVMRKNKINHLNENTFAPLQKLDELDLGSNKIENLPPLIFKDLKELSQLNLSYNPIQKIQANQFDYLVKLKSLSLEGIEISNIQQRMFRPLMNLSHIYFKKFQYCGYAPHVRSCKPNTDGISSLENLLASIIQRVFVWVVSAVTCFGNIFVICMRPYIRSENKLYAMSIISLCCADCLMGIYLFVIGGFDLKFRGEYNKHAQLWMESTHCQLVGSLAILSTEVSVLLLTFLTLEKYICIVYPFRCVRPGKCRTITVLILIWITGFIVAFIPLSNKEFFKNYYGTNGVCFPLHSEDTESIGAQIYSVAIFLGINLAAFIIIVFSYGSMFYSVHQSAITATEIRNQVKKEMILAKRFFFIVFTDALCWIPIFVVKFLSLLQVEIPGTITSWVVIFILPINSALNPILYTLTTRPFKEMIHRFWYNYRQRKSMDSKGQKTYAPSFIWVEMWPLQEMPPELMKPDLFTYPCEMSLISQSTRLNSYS
Format: cell-based
Procedure, shortened: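 Agonism is measured as cAMP by HTRF, quantified from a standard curve via the 665/590 nm ratio and fitted with a four-parameter logistic equation. Compounds (0.010 nM to 50 μM final, 2% DMSO) were applied for 30 min at rt to human RXFP1-expressing HEK293 cells in assay buffer containing 0.5 mM IBMX.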
Work on `COc1ccc(N2CCCC(C(C)(C)O)C2)cc1C(=O)Nc1c(C(=O)Nc2ccc(F)c(C(F)(F)F)c2)sc2cc(C(F)(F)F)ccc12` (single isomer, unassigned) [Example 107, N-(4-fluoro-3-(trifluoromethyl)phenyl)-3-(5-(3-(2-hydroxypropan-2-yl)piperidin-1-yl)-2-methoxy-benzamido)-6-(trifluoromethyl) benzo[b] thiophene-2-carboxamide] yielded an EC50 of 918 nM.
`COc1ccc(C2CCCN(CCCO)C2)cc1C(=O)Nc1c(C(=O)Nc2ccc(F)c(C(F)(F)F)c2)sc2cc(C(F)(F)F)ccc12` (stereo not drawn) [Example 90, N-(4-fluoro-3-(trifluoromethyl)phenyl)-3-(5-(1-(3-hydroxypropyl)piperidin-3-yl)-2-methoxy-benzamido)-6-(trifluoromethyl) benzo[b] thiophene-2-carboxamide] was tested, and the EC50 was 1580 nM.
`COc1ccc(-c2ccc(N3CCOCC3)nc2)cc1C(=O)Nc1c(C(=O)Nc2ccc(F)c(C(F)(F)F)c2)sc2cc(C(F)(F)F)ccc12` [Example 127, N-(4-fluoro-3-(trifluoromethyl)phenyl)-3-(2-methoxy-5-(6-morpholino-pyridin-3-yl)benzamido)-6-(trifluoromethyl) benzo[b] thiophene-2-carboxamide] gave an EC50 of 254 nM.
With `COc1ccc(N2CCCC(C(C)(C)O)C2)cc1C(=O)Nc1c(C(=O)Nc2ccc(F)c(C(F)(F)F)c2)sc2cc(C(F)(F)F)ccc12` (single isomer, unassigned) [Example 108, N-(4-fluoro-3-(trifluoromethyl)phenyl)-3-(5-(3-(2-hydroxypropan-2-yl)piperidin-1-yl)-2-methoxy-benzamido)-6-(trifluoromethyl) benzo[b] thiophene-2-carboxamide] the EC50 was 1430 nM.
Compound `COc1ccc(S(=O)(=O)N2CCC(C(C)(C)O)CC2)cc1C(=O)Nc1c(C(=O)Nc2ccc(F)c(C(F)(F)F)c2)sc2cc(C(F)(F)F)ccc12` [Example 225, N-(4-fluoro-3-(trifluoromethyl)phenyl)-3-(5-((4-(2-hydroxypropan-2-yl)piperidin-1-yl)sulfonyl)-2-methoxy-benzamido)-6-(trifluoromethyl) benzo[b] thiophene-2-carboxamide] has an EC50 of 1060 nM.
“(R)-6-chloro- N-(4-fluoro-3- (trifluoromethyl) phenyl)-3-(5- (2- (hydroxymethyl) morpholine- 4-carbonyl)-2- methoxy- benzamido) thieno[3, 2-c]pyridine-2- carboxamide [Example 239]” showed an EC50 of 2100 nM.
Work on `COc1ccc(C2CC3CCC(C2)N3CC(N)=O)cc1C(=O)Nc1c(C(=O)Nc2ccc(F)c(C(F)(F)F)c2)sc2cc(C(F)(F)F)ccc12` (stereo not drawn) [Example 192, 3-(5-(8-(2-amino-2-oxoethyl)-8-azabicyclo[3.2.1]octan-3-yl)-2-methoxy-benzamido)-N-(4-fluoro-3-(trifluoromethyl)phenyl)-6-(trifluoromethyl) benzo[b] thiophene-2-carboxamide] yielded an EC50 of 889 nM.
With `COc1ccc(C2=NOC3(CCN(C(=O)CO)C3)C2)cc1C(=O)Nc1c(C(=O)Nc2ccc(F)c(C(F)(F)F)c2)sc2cc(C(F)(F)F)ccc12` (stereo not drawn) [Example 278, N-[4-fluoro-3-(trifluoromethyl)phenyl]-3-{5-[7-(2-hydroxyacetyl)-1-oxa-2,7-diazaspiro[4.4]non-2-en-3-yl]-2-methoxy-benzamido}-6-(trifluoromethyl)-1-benzothiophene-2-carboxamide] the EC50 was 408 nM.
Work on `COc1ccc(C(=O)N2CC(C(C)(C)O)C2)cc1C(=O)Nc1c(C(=O)Nc2ccc(F)c(C(F)(F)F)c2)sc2cc(C(F)(F)F)ccc12` [Example 179, N-(4-fluoro-3-(trifluoromethyl)phenyl)-3-(5-(3-(2-hydroxypropan-2-yl)azetidine-1-carbonyl)-2-methoxy-benzamido)-6-(trifluoromethyl) benzo[b] thiophene-2-carboxamide] yielded an EC50 of 179 nM.

Source: patent US20260265233A1, “BENZOTHIOPHENE DERIVATIVES AS RXFP1 AGONISTS” (BRISTOL-MYERS SQUIBB COMPANY, priority 2021, published 2026)
